Test results published in patent US20160101090A1, “INHIBITION OF TRK KINASE MEDIATED TUMOR GROWTH AND DISEASE PROGRESSION” (DECIPHERA PHARMACEUTICALS, LLC, priority 2014, published 2016).
Read-outs that look alike come from different tables or passages of the source.

Experiments:
[1] = molecular target: T1, NTRK1 (SEQ ID No. 1) recombinant kinase (Homo sapiens, UniProt P04629); experiment: Recombinant NTRK1 kinase assay (ADP production coupled to pyruvate kinase/lactate dehydrogenase); type: biochemical; conditions: recombinant NTRK1 4.7 nM, ATP 1 mM
T1 construct: purchased Invitrogen
Description: NTRK1 protein sequence used for screening (SEQ ID No. 1)

[2] = molecular target: T2, NTRK2 (SEQ ID No. 2) recombinant kinase (Homo sapiens, UniProt Q16620); experiment: Recombinant NTRK2 kinase assay (ADP production coupled to pyruvate kinase/lactate dehydrogenase); type: biochemical; conditions: recombinant NTRK2 4 nM, ATP 1 mM
T2 construct: purchased Invitrogen
Description: NTRK2 protein sequence used for screening (SEQ ID No. 2)

[3] = system: Transfected NIH-3T3 ETV6-NTRK3 cells; experiment: Transfected NIH-3T3 ETV6-NTRK3 cell proliferation assay (resazurin); type: cell-based; conditions: Mus musculus, NIH3T3, 144 h; transfected NIH-3T3 cells, six days, 0.5% FBS; read-out: IC50, inhibition of proliferation, ETV6-NTRK3 transfected NIH-3T3
Protocol: Transfected NIH-3T3 ETV6-NTRK3 cells were obtained from the laboratory of James Fagin, MD (Memorial Sloan Kettering Cancer Center). Briefly, cells were grown in DMEM media supplemented with 10% characterized fetal bovine serum, 1% Penicillin/Streptomycin/L-glutamine solution (Life Technologies, Carlsbad, Calif.) and 1 μg/mL puromycin (Invitrogen, Carlsbad, Calif.) at 37 degrees Celsius, 5% CO2, and 95% humidity. Cells were allowed to expand until reaching approximately 75% confluency at which point they were subcultured or harvested for assay use.

[4] = molecular target: T3, TPM3-NTRK1 (Homo sapiens, UniProt P04629); experiment: KM-12 phospho-NTRK1 Western blot; type: cell-based; conditions: KM-12 cells, 4 h compound; read-out: IC50, inhibition of TPM3-NTRK1 phosphorylation
T3 construct: chromosomal translocation of the kinase domain of NTRK1, NTRK2, or NTRK3 with a variety of N-terminal fusion partners; TPM3 N-terminal portion (fusion partner, P06753); endogenous in cells; host or cells: KM-12 (NCI DCTD Tumor Repository); also grown as subcutaneous xenograft in mice; the other entry of the earlier key: TPM3 (P06753, Tropomyosin alpha-3 chain)
Protocol: Briefly, cells were grown in RPMI 1640 media supplemented with 10% characterized fetal bovine serum and 1% Penicillin/Streptomycin/L-glutamine solution (Invitrogen, Carlsbad, Calif.) at 37 degrees Celsius, 5% CO2, and 95% humidity. Cells were allowed to expand until reaching 70-95% confluency at which point they were subcultured or harvested for assay use.
Two hundred fifty thousand cells in growth medium were added per well in a 24-well tissue-culture treated plate. The plate was incubated overnight at 37 degrees Celsius, 5% CO2, and 95% humidity. The next day, a serial dilution of test compound was added to the cells, and plates were incubated for 4 hours at 37 degrees Celsius, 5% CO2, and 95% humidity. Media was then aspirated, cells were washed with PBS, and then lysed. Cell lysates were separated by SDS-PAGE and transferred to PVDF. Phospho-NTRK1 (Tyr674/675) was detected using an antibody from Cell Signaling Technology (Beverly, Mass.), ECL Plus detection reagent (GE Healthcare, Piscataway, N.J.) and a Molecular Devices Storm 840 phosphorimager in fluorescence mode. Blots were stripped and probed for total NTRK1 using an antibody from Santa Cruz Biotech (Santa Cruz, Calif.). IC50 values were calculated using Prism software (Graphpad, San Diego, Calif.).

[5] = molecular target: T4, NTRK2 (Homo sapiens, UniProt Q16620); experiment: SK-N-SH (retinoic acid differentiated) phospho-NTRK2 Western blot; type: cell-based; conditions: SK-N-SH cells differentiated with all-trans retinoic acid, BDNF 100 ng/mL stimulated; read-out: IC50, inhibition of NTRK2 phosphorylation
T4 construct: endogenous in cells; host or cells: SK-N-SH (ATCC HTB-11), differentiated with 10 µM all-trans retinoic acid
Protocol: SK-N-SH cells (catalog #HTB-11) were obtained from the American Type Culture Collection (ATCC; Manassas, Va.). Briefly, SK-N-SH cells were grown in MEM medium supplemented with 10% characterized fetal bovine serum and 1% Penicillin-Streptomycin-L-glutamine solution (Invitrogen, Carlsbad, Calif.) at 37 degrees Celsius, 5% CO2, and 95% humidity. Cells were allowed to expand until reaching 70-95% confluency at which point they were subcultured. To induce expression of NTRK2, cells were grown in growth medium containing 10 μM all-trans retinoic acid for ten to fourteen days prior to harvesting cells for assay use.
(§1) Two hundred fifty thousand cells differentiated with 10 μM all-trans retinoic acid in growth medium were added per well in a 12-well tissue-culture treated plate. The plate was incubated overnight at 37 degrees Celsius, 5% CO2, and 95% humidity. The next day, growth media was aspirated, cells were washed with serum-free MEM media, and one milliliter serum-free MEM media was added per well. […] Phospho-NTRK2 (Tyr706/707) was detected using an antibody from Cell Signaling Technology (Beverly, Mass.), ECL Plus detection reagent (GE Healthcare, Piscataway, N.J.) and a Molecular Devices Storm 840 phosphorimager in fluorescence mode. […] IC50 values were calculated using Prism software (Graphpad, San Diego, Calif.).

[6] = system: KM-12 TPM3-NTRK1 xenograft; experiment: KM-12 TPM3-NTRK1 xenograft model, single-agent efficacy; type: in vivo, Mice; conditions: PO, BID
Description: Mice were implanted subcutaneously and treatment began on Day 5. Treatments ended on Day 25 after three weeks of treatment.

[7] = molecular target: T5, NTRK1 kinase phosphorylation (TPM3-NTRK1) (Homo sapiens, UniProt P04629); experiment: KM-12 TPM3-NTRK1 xenograft model, inhibition of NTRK1 phosphorylation in tumors after a single dose; type: in vivo, Mice; conditions: KM12, mouse, po; for inhibition at 15 mg/kg: single dose 15 mg/kg PO; for inhibition at 7.5 mg/kg: single oral dose 7.5 mg/kg
T5 construct: chromosomal translocation of the kinase domain of NTRK1, NTRK2, or NTRK3 with a variety of N-terminal fusion partners; TPM3 N-terminal portion (fusion partner, P06753); endogenous in cells; host or cells: KM-12 (NCI DCTD Tumor Repository); also grown as subcutaneous xenograft in mice; the other entry of the earlier key: TPM3 (P06753, Tropomyosin alpha-3 chain)
Description: (§2) Mice were implanted subcutaneously and a single treatment was given on Day 8. At time points after the single oral dose, tumors were resected, frozen, pulverized, and then lysed. Lysates were separated by SDS-PAGE and protein was transferred to PVDF. Phospho-NTRK1 (Tyr674/675) was detected using an antibody from Cell Signaling Technology (Beverly, Mass.), ECL Plus detection reagent (GE Healthcare, Piscataway, N.J.) and a Molecular Devices Storm 840 phosphorimager in fluorescence mode. Blots were stripped and probed for total NTRK1 using an antibody from Santa Cruz Biotech (Santa Cruz, Calif.).

[8] = system: NIH-3T3 ETV6-NTRK3 xenograft; experiment: Transfected NIH-3T3 ETV6-NTRK3 xenograft model, single-agent efficacy; type: in vivo, Mice; conditions: 15 mg/kg, PO, BID, p<0.05
Description: Mice were implanted subcutaneously and treatment began on Day 4. Treatments ended on Day 24 after three weeks of treatment.

[9] = system: NTRK3 kinase phosphorylation (ETV6-NTRK3); experiment: Transfected NIH-3T3 ETV6-NTRK3 xenograft model, inhibition of NTRK3 phosphorylation in tumors after a single dose; type: in vivo, Mice; conditions: single dose 15 mg/kg PO
Description: as §2, with “6.” for “8.”, “doses,” for “dose,”, “Phospho-NTRK3 (Tyr516)” for “Phospho-NTRK1 (Tyr674/675)”, “mode.” for “mode. Blots were stripped and probed for total NTRK1 using an antibody from Santa Cruz Biotech (Santa Cruz, Calif.).”

[10] = molecular target: T6, NTRK1 (Homo sapiens, UniProt P04629); experiment: K562 phospho-NTRK1 Western blot; type: cell-based; set-up: endogenous in cells; conditions: K562 cells, 4 h compound, NGF 100 ng/mL stimulated; read-out: IC50, inhibition of NTRK1 phosphorylation
Protocol: (§3) K562 cells (catalog #CCL-243) were obtained from the American Type Culture Collection (ATCC; Manassas, Va.). Briefly, K562 cells were grown in suspension in IMDM medium supplemented with 10% characterized fetal bovine serum and 1% Penicillin-Streptomycin-L-glutamine solution (Invitrogen, Carlsbad, Calif.) at 37 degrees Celsius, 5% CO2, and 95% humidity. Cells were allowed to expand until reaching one to three million cells per milliliter at which point they were subcultured or harvested for assay use.
One million cells in serum-free IMDM media were added per well in a 24-well tissue-culture treated plate. A serial dilution of test compound was added to cells and plates were incubated for 4 hours at 37 degrees Celsius, 5% CO2, and 95% humidity. Cells were then stimulated for 10 minutes with 100 ng/mL NGF (R&D Systems, Minneapolis, Minn.). Cells pelleted by centrifugation, washed with PBS, then lysed. Cell lysates were separated by SDS-PAGE and transferred to PVDF. Phospho-NTRK1 (Tyr674/675) was detected using an antibody from Cell Signaling Technology (Beverly, Mass.), ECL Plus detection reagent (GE Healthcare, Piscataway, N.J.) and a Molecular Devices Storm 840 phosphorimager in fluorescence mode. Blots were stripped and probed for total NTRK1 using an antibody from Santa Cruz Biotech (Santa Cruz, Calif.). IC50 values were calculated using Prism software (Graphpad, San Diego, Calif.).

[11] = molecular target: T6, NTRK1; experiment: SK-N-SH phospho-NTRK1 Western blot; type: cell-based; set-up: endogenous in cells; host or cells: SK-N-SH (ATCC HTB-11); conditions: SK-N-SH cells, 4 h compound, NGF 100 ng/mL stimulated; read-out: IC50, inhibition of NTRK1 phosphorylation
Protocol: as §3, with “SK-N-SH” for “K562”, “#HTB-11)” for “#CCL-243)”, “MEM” for “suspension in IMDM”, “70-95% confluency” for “one to three million cells per milliliter”
as §1, with “cells” for “cells differentiated with 10 μM all-trans retinoic acid”, “24-well” for “12-well”, “well. A serial dilution of test compound was added to the cells, and plates were incubated for 4 hours at 37 degrees Celsius, 5% CO2, and 95% humidity. Cells were then stimulated for 10 minutes with 100 ng/mL NGF (R&D Systems, Minneapolis, Minn.).” for “well.”, “Phospho-NTRK1 (Tyr674/675)” for “Phospho-NTRK2 (Tyr706/707)”

[12] = 3.75 mg/kg, not statistically significant

T5 sequence (P04629 with tags, fused parts or gaps): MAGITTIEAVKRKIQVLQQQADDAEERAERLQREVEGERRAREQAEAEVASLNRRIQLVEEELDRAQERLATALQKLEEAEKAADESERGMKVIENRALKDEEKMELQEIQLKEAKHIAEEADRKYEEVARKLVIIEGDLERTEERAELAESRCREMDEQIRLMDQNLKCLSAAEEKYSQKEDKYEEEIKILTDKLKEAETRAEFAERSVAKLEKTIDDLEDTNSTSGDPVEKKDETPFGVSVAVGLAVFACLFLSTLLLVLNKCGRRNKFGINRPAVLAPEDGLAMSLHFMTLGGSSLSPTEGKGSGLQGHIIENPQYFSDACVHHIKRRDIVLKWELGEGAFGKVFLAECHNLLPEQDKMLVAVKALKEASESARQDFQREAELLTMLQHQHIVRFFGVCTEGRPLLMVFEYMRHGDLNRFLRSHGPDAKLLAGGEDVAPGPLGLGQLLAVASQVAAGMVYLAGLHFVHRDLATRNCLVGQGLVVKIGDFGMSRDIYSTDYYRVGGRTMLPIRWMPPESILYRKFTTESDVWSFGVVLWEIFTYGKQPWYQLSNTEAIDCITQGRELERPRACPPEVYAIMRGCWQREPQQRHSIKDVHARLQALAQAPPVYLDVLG
T6 sequence (P04629 33-796): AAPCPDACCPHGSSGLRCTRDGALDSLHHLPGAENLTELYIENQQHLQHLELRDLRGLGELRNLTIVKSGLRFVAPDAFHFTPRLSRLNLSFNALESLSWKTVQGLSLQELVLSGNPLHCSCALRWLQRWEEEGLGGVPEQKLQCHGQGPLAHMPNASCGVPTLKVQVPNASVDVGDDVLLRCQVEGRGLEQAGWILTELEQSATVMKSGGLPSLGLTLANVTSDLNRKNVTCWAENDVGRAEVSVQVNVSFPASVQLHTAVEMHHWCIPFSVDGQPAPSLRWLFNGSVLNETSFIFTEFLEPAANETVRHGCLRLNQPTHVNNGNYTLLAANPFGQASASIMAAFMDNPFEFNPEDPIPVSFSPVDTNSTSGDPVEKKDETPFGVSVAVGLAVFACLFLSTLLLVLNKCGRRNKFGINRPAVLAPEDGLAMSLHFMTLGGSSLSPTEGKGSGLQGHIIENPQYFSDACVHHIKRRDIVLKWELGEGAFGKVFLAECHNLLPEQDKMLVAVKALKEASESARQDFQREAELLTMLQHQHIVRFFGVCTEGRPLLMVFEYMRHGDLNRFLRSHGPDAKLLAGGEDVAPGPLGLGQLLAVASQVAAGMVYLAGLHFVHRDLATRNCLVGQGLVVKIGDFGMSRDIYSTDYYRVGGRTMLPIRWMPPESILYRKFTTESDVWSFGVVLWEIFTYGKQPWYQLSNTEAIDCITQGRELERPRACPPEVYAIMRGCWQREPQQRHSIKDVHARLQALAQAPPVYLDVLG
T4 sequence (Q16620 32-822): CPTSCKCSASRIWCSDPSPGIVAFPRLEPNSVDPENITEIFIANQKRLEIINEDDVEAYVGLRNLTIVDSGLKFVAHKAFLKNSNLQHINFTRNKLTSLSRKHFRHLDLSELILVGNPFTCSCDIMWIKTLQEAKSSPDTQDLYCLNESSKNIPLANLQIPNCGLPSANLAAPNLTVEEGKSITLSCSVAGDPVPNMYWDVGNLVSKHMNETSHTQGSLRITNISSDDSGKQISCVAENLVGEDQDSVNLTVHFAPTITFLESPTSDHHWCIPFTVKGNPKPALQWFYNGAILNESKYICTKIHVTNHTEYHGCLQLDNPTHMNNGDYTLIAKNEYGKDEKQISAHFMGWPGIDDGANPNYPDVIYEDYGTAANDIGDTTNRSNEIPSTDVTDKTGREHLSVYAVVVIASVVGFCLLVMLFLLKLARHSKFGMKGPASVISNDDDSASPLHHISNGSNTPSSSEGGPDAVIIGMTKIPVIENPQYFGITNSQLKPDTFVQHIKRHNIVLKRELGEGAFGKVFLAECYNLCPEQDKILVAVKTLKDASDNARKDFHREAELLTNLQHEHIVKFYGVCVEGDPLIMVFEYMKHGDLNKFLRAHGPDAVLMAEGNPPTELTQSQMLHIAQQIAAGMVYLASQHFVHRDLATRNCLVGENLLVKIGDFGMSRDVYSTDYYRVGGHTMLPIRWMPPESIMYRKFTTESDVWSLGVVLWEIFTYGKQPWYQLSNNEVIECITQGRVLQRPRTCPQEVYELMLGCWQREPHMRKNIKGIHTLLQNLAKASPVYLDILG
T2 sequence (Q16620 with tags, fused parts or gaps): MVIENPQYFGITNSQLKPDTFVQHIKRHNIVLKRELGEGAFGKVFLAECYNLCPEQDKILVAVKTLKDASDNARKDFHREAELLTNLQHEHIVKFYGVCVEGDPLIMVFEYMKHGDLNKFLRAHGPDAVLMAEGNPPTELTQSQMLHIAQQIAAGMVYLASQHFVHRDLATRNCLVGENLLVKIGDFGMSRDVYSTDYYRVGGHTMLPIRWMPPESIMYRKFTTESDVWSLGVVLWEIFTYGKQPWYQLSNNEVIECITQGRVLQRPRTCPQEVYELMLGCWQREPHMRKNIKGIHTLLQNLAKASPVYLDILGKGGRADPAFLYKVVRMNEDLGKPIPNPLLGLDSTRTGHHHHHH
T1 sequence (P04629 with tags, fused parts or gaps): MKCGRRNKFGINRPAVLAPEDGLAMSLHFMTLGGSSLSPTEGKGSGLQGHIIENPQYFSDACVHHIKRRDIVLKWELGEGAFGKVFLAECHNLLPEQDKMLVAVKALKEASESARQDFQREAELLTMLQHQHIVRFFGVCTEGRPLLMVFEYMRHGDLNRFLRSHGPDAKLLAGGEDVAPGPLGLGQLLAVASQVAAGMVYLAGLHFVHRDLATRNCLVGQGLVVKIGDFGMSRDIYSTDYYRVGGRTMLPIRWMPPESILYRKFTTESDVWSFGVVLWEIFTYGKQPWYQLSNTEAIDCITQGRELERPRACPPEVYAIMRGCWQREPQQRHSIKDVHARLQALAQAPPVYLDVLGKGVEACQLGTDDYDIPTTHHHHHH

## O=C(Nc1cc(Oc2cc(F)c(NC(=O)C3(C(=O)Nc4ccc(F)cc4)CC3)cc2F)ccn1)C1CC1 [Compound 1, N-(4-(2-(cyclopropanecarboxamido)pyridin-4-yloxy)-2,5-difluorophenyl)-N′-(4)cyclopropane-1,1-dicarboxamide]
[1]
  IC50: 0.71 nM
[2]
  IC50: 4.6 nM
[3]
  IC50: 0.44 nM
[4]
  IC50: 1.4 nM
[5]
  IC50: 0.24 nM
[6]; [12]
  Day 11 % T/C: 39%
  tumor growth delay: 4.5 days
[6]; 7.5 mg/kg, Day 5 to Day 25, p<0.05
  tumor growth delay: 11.4 days
[6]; 7.5 mg/kg, p<0.05
  Day 11 % T/C: 22%
[6]; 15 mg/kg, Day 5 to Day 25, p<0.05
  tumor growth delay: 17.8 days
[6]; 15 mg/kg, p<0.05
  Day 11 % T/C: 16%
[7]; 24 hours post dose, read-out: inhibition of NTRK1 phosphorylation
  inhibition at 15 mg/kg: 79%
[7]; through 18 hours post dose, read-out: inhibition of NTRK1 kinase phosphorylation in vivo
  inhibition at 15 mg/kg: ~95%
[7]; 12 hours post dose
  inhibition at 7.5 mg/kg: 66%
[7]; 18 hours post dose
  inhibition at 7.5 mg/kg: 74%
[7]; 24 hours post dose
  inhibition at 7.5 mg/kg: 59%
[7]; for 8 hours
  inhibition at 7.5 mg/kg: > 95%
[8]; Day 4 to Day 24
  tumor growth delay: 26.5 days
[8]
  Day 8 % T/C: 6%
[9]; 18 hours post dose
  inhibition of NTRK3 phosphorylation: 63%
[9]; 24 hours post dose
  inhibition of NTRK3 phosphorylation: 23%
[9]; through 12 hours post dose
  inhibition of NTRK3 kinase phosphorylation in vivo: > 95%
[10]
  IC50: 0.69 nM
[11]
  IC50: 1 nM
